Like-named read-outs stand apart in the source and are kept apart here.

15 compounds from patent US20230105212A1, “BIPHENYL DERIVATIVE INHIBITOR, PREPARATION METHOD THEREFOR AND USE THEREOF” (SHANGHAI HANSOH BIOMEDICAL CO., LTD., priority 2020, published 2023) can be followed below.

For test [1], the target named is T1, PD-L1 protein on the surface of MC38-hPDL1 tumor cells (Homo sapiens, UniProt Q9NZQ7).
T1 construct: expressed in transfected cells; host or cells: MC38-hPDL1 (mouse colon cancer cells)
T1 sequence (Q9NZQ7 19-290): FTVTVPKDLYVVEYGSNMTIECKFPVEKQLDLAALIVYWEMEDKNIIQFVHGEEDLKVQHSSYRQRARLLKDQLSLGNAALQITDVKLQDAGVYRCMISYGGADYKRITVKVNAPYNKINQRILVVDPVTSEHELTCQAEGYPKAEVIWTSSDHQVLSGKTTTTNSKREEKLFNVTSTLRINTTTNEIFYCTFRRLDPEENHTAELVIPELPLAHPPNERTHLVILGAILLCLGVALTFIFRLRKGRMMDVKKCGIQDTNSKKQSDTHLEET
Briefly: Induction of endocytosis of PD-L1 on the surface of tumor cells (flow cytometry). It is filed as cell-based. The following applies: for Emax: MC38-hPDL1 cells, read-out: MC38 maximum endocytosis rate. The essentials: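 MC38-hPDL1 mouse colon cancer cells overexpressing human PD-L1 were exposed to compound dilutions for 16 h at 37 °C. Surface PD-L1 was then stained with PE anti-human CD274 for 30 min at room temperature and measured by flow cytometry. Endocytosis rate versus concentration was fitted by nonlinear regression to give IC50.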
In general terms: A flow cytometer gives signals particle by particle.

Another test has as its target T2, human PD-1/PD-L1 binding (Homo sapiens, UniProt Q9NZQ7).
T2 construct: PD-L1-His protein (19 to 238 amino acids) (Abcam #ab167713); purchased Abcam (PD-L1-His); R&D (PD-1-Fc) ab167713; 1086-PD
Briefly: Inhibition of human PD-1/PD-L1 binding (TR-FRET/HTRF). The essentials:
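PD-L1-His (aa 19–238, diluted to 10 nM) and PD-1-Fc (aa 25–167, diluted to 20 nM) incubated with compounds (10 μM or 1 μM top, 3-fold, 11 doses) 60 min at room temperature, then anti-6HIS Eu cryptate/anti-human IgG-XL665 added for 3 h RT or overnight 4 °C. HTRF 665/620 nm ratio gave inhibition and IC50.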
For orientation: In TR-FRET formats the signal depends on donor and acceptor labels being close together.

Another test addresses T3, human PD-L1 protein (Homo sapiens, UniProt Q9NZQ7).
T3 construct: purchased Acro Biosystems PD1-H5229
Briefly: Thermal shift: melting temperature of PD-L1 protein. Format: binding. The following applies: read-out: ΔTm (° C.). The procedure, abridged: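 Human PD-L1 at 2 μM final was tested in […], 150 mM NaCl with SYPRO Orange, heated 25→95 °C at 0.03 °C/s in a PCR melt-curve run. Tm was taken per treatment; ΔTm is the shift relative to DMSO vehicle.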

The mark [2] stands for this setting: inducing endocytosis of PD-L1, MC38-hPDL1 cells, 16 hours incubation, read-out: MC38 IC50.
Setting [3] is: TR-FRET, PD-L1-His and PD-1-Fc, read-out: PD-1/PD-L1 binding IC50.
The mark [4] stands for this setting: compound 10 μM, PD-L1 protein 2 μM, Tm minus DMSO vehicle control.

T3 sequence (Q9NZQ7 19-238 limits assumed): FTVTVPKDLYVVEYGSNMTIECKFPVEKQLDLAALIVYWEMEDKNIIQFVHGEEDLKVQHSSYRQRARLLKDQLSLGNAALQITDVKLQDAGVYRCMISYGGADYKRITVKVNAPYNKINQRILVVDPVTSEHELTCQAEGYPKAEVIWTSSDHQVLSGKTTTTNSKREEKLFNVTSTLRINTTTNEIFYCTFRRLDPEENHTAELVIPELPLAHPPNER
T2 sequence (Q9NZQ7 19-238): as the sequence (Q9NZQ7 19-238 limits assumed) above

The term ΔTm denotes the change in melting temperature against a reference sample. On to `COc1nc(-c2cccc(-c3cccc(NC(=O)c4nc5c(n4C)CCN(C)C5)c3Cl)c2Cl)cnc1CN1CC2(C1)CN(C(C)=O)C2` [Embodiment 152, N-(3′-(5-((6-Acetyl-2,6-diazaspiro[3.3]heptan-2-yl)methyl)-6-methoxypyrazin-2-yl)-2,2′-dichloro-[1,1′-biphenyl]-3-yl)-1,5-dimethyl-4,5,6,7-tetrahydro-1H-imidazo[4,5-c]pyridine-2-carboxamide], for which the Emax in test [1] (16 hours incubation) turned out to be 97%. Further, the IC50 was 0.6 nM in test [1] (setting [2]) and 1.3 nM on human PD-1/PD-L1 binding (setting [3]). The ΔTm at 10 µM at human PD-L1 protein (setting [4]) turned out to be 16.8 °C.
Regarding `COc1nc(-c2cccc(-c3cccc(NC(=O)c4nc5c(n4C)CCN(C)C5)c3Cl)c2Cl)ncc1CN1CC(CNC(C)=O)C1` [Embodiment 225, N-(3′-(5-((3-(Acetylaminomethyl)azetidin-1-yl)methyl)-4-methoxypyrimidin-2-yl)-2,2′-dichloro-[1,1′-biphenyl]-3-yl)-1,5-dimethyl-4,5,6,7-tetrahydro-1H-imidazo[4,5-c]pyridine-2-carboxamide], in test [1] (16 hours incubation), the Emax is 93%. The IC50 at human PD-1/PD-L1 binding (setting [3]) turned out to be 4.5 nM.
With `COc1nc(-c2cccc(-c3cccc(NC(=O)c4nc5c(n4C)CCN(C)C5)c3Cl)c2Cl)ccc1CNC(CO)CO` [Embodiment 174, N-(2,2′-Dichloro-3′-(5-(((1,3-dihydroxypropan-2-yl)amino)methyl)-6-methoxypyridin-2-yl)-[1,1′-biphenyl]-3-yl)-1,5-dimethyl-4,5,6,7-tetrahydro-1H-imidazo[4,5-c]pyridine-2-carboxamide], the Emax in test [1] (16 hours incubation) is 97%. In addition, the results for the IC50 (in test [1] (setting [2]); at human PD-1/PD-L1 binding (setting [3])) were 1 nM and 3 nM, respectively. Also, the ΔTm at 10 µM on human PD-L1 protein (setting [4]) was 16.6 °C.
For the compound `COc1nc(-c2cccc(-c3cccc(NC(=O)c4nc5c(n4C)CCN(C)C5)c3Cl)c2Cl)ccc1CN1CC(NC(C)=O)C1` [Embodiment 180, N-(3′-(5-((3-Acetylaminoazetidin-1-yl)methyl)-6-methoxypyridin-2-yl)-2,2′-dichloro-[1,1′-biphenyl]-3-yl)-1,5-dimethyl-4,5,6,7-tetrahydro-1H-imidazo[4,5-c]pyridine-2-carboxamide], the Emax in test [1] (16 hours incubation) was determined as 96%. Further, the IC50 in test [1] (setting [2]) was found to be 0.6 nM; at human PD-1/PD-L1 binding (setting [3]) it was 3.8 nM. In addition, the ΔTm at 10 µM on human PD-L1 protein (setting [4]) turned out to be 20.6 °C.
For `COc1nc(-c2cccc(-c3cccc(NC(=O)c4nc5c(n4C)CCN(C)C5)c3Cl)c2Cl)ccc1CN1CC2(C1)CN(C(C)=O)C2` [Embodiment 123, N-(3′-(5-((6-Acetyl-2,6-diazaspiro[3.3]heptan-2-yl)methyl)-6-methoxypyridin-2-yl)-2,2′-dichloro-[1,1′-biphenyl]-3-yl)-1,5-dimethyl-4,5,6,7-tetrahydro-1H-imidazo[4,5-c]pyridine-2-carboxamide], the Emax in test [1] (16 hours incubation) was determined as 97%. In addition, the IC50 was 0.4 nM in test [1] (setting [2]) and 1.6 nM on human PD-1/PD-L1 binding (setting [3]). The ΔTm at 10 µM on human PD-L1 protein is 16.5 °C.
Consider `COc1nc(-c2cccc(-c3cccc(NC(=O)c4nc5c(n4C)CCN(C)C5)c3Cl)c2Cl)ccc1CN1CC(F)C1` [Embodiment 120, N-(2,2′-Dichloro-3′-(5-((3-fluoroazetidin-1-yl)methyl)-6-methoxypyridin-2-yl)-[1,1′-biphenyl]-3-yl)-1,5-dimethyl-4,5,6,7-tetrahydro-1H-imidazo[4,5-c]pyridine-2-carboxamide], for which, in test [1] (16 hours incubation), the Emax turned out to be 95%. In addition, the IC50 in test [1] (setting [2]) came to 1.2 nM; on human PD-1/PD-L1 binding (setting [3]), 7.4 nM. In addition, at human PD-L1 protein, the ΔTm at 10 µM came out at 15.8 °C.
For `CNC(=O)CNCc1cnc(C(=O)Nc2cccc(-c3cccc(NC(=O)c4nc5c(n4C)CCN(C)C5)c3Cl)c2C)cc1OC` [Embodiment 95, N-(2-Chloro-3′-(4-methoxy-5-(((2-(methylamino)-2-carbonylethyl)amino)methyl)picolinamido)-2′-methyl-[1,1′-biphenyl]-3-yl)-1,5-dimethyl-4,5,6,7-tetrahydro-1H-imidazo[4,5-c]pyridine-2-carboxamide], the Emax in test [1] (16 hours incubation) is 94%. Also, the figures for the IC50 (in test [1] (setting [2]); at human PD-1/PD-L1 binding (setting [3])) were 2.3 nM and 2.4 nM, respectively. For the same compound, the ΔTm at 10 µM on human PD-L1 protein (setting [4]) came out at 14.4 °C.
`COc1nc(-c2cccc(-c3cccc(NC(=O)c4nc5c(n4C)CCN(C)C5)c3Cl)c2Cl)ccc1CN1CC(C(=O)N(C)C)C1` [Embodiment 183, N-(2,2′-Dichloro-3′-(5-((3-(dimethylcarbamoyl)azetidin-1-yl)methyl)-6-methoxypyridin-2-yl)-[1,1′-biphenyl]-3-yl)-1,5-dimethyl-4,5,6,7-tetrahydro-1H-imidazo[4,5-c]pyridine-2-carboxamide]: the Emax in test [1] (16 hours incubation) turned out to be 95%. Moreover, the IC50 on human PD-1/PD-L1 binding (setting [3]) amounted to 4.7 nM. Further, the ΔTm at 10 µM at human PD-L1 protein (setting [4]) came to 21 °C.
As for `COc1nc(-c2cccc(-c3cccc(NC(=O)c4nc5c(n4C)CCN(C)C5)c3Cl)c2Cl)ncc1CN1CC(CO)C1` [Embodiment 223, N-(2,2′-Dichloro-3′-(5-((3-(hydroxymethyl)azetidin-1-yl)methyl)-4-methoxypyrimidin-2-yl)-[1,1′-biphenyl]-3-yl)-1,5-dimethyl-4,5,6,7-tetrahydro-1H-imidazo[4,5-c]pyridine-2-carboxamide], the Emax in test [1] (16 hours incubation) came to 94%. For the same compound, the IC50 on human PD-1/PD-L1 binding (setting [3]) was determined as 2.4 nM. The ΔTm at 10 µM at human PD-L1 protein (setting [4]) amounted to 12.3 °C.
`COc1nc(-c2cccc(-c3cccc(NC(=O)c4nc5c(n4C)CCN(C)C5)c3Cl)c2Cl)ccc1CNC1COC1` [Embodiment 114, N-(2,2′-Dichloro-3′-(6-methoxy-5-((oxetan-3-ylamino)methyl)pyridin-2-yl)-[1,1′-biphenyl]-3-yl)-1,5-dimethyl-4,5,6,7-tetrahydro-1H-imidazo[4,5-c]pyridine-2-carboxamide]: in test [1] (16 hours incubation), the Emax is 95%. Besides, the IC50 in test [1] (setting [2]) came out at 1.2 nM; on human PD-1/PD-L1 binding (setting [3]), 4.3 nM. In addition, the ΔTm at 10 µM on human PD-L1 protein (setting [4]) was 17.9 °C.
Take `COc1nc(-c2cccc(-c3cccc(NC(=O)c4nc5c(n4C)CCN(C)C5)c3Cl)c2Cl)ccc1CN[C@H]1CCOC[C@@H]1O` (relative stereo) [Embodiment 175, N-(2,2′-Dichloro-3′-(5-((((3,4-trans)-3-hydroxytetrahydro-2H-pyran-4-yl)amino)methyl)-6-methoxypyridin-2-yl)-[1,1′-biphenyl]-3-yl)-1,5-dimethyl-4,5,6,7-tetrahydro-1H-imidazo[4,5-c]pyridine-2-carboxamide]: the Emax in test [1] (16 hours incubation) turned out to be 98%. In addition, the IC50 is 0.4 nM in test [1] (setting [2]) and 4.2 nM on human PD-1/PD-L1 binding (setting [3]). For the same compound, the ΔTm at 10 µM at human PD-L1 protein (setting [4]) was 18 °C.
`COc1nc(-c2cccc(-c3cccc(NC(=O)c4nc5c(n4C)CCN(C)C5)c3Cl)c2Cl)cnc1CN1CC(NC(C)=O)C1` [Embodiment 218, N-(3′-(5-((3-Acetylaminoazetidin-1-yl)methyl)-6-methoxypyrazin-2-yl)-2,2′-dichloro-[1,1′-biphenyl]-3-yl)-1,5-dimethyl-4,5,6,7-tetrahydro-1H-imidazo[4,5-c]pyridine-2-carboxamide]: the Emax in test [1] (16 hours incubation) was 95%. Moreover, the IC50 at human PD-1/PD-L1 binding (setting [3]) was determined as 3.7 nM. In addition, at human PD-L1 protein (setting [4]), the ΔTm at 10 µM is 13.7 °C.
As for `COc1nc(-c2cccc(-c3cccc(NC(=O)c4nc5c(n4C)CCN(C)C5)c3Cl)c2Cl)ccc1CN1CC2(C1)CN(C(=O)C(C)C)C2` [Embodiment 186, N-(2,2′-Dichloro-3′-(5-((6-isobutyryl-2,6-diazaspiro[3.3]heptan-2-yl)methyl)-6-methoxypyridin-2-yl)-[1,1′-biphenyl]-3-yl)-1,5-dimethyl-4,5,6,7-tetrahydro-1H-imidazo[4,5-c]pyridine-2-carboxamide], in test [1] (16 hours incubation), the Emax stood at 96%. The IC50 amounted to 0.7 nM in test [1] (setting [2]) and 8.1 nM on human PD-1/PD-L1 binding (setting [3]). At human PD-L1 protein (setting [4]), the ΔTm at 10 µM turned out to be 21.4 °C.
Regarding `CCC(=O)N1CC2(CN(Cc3ccc(-c4cccc(-c5cccc(NC(=O)c6nc7c(n6C)CCN(C)C7)c5Cl)c4Cl)nc3OC)C2)C1` [Embodiment 188, N-(2,2′-Dichloro-3′-(6-methoxy-5-((6-propionyl-2,6-diazaspiro[3.3]heptan-2-yl)methyl)pyridin-2-yl)-[1,1′-biphenyl]-3-yl)-1,5-dimethyl-4,5,6,7-tetrahydro-1H-imidazo[4,5-c]pyridine-2-carboxamide], the IC50 in test [1] was found to be 0.4 nM; at human PD-1/PD-L1 binding, 6.3 nM. Further, the Emax in test [1] (16 hours incubation) was 97%. Moreover, on human PD-L1 protein, the ΔTm at 10 µM was found to be 16.5 °C.
With `COc1nc(-c2cccc(-c3cccc(NC(=O)c4nc5c(n4C)CCN(C)C5)c3Cl)c2Cl)ccc1CN1CC(O)(CO)C1` [Embodiment 173, N-(2,2′-Dichloro-3′-(5-((3-hydroxy-3-(hydroxymethyl)azetidin-1-yl)methyl)-6-methoxypyridin-2-yl)-[1,1-biphenyl]-3-yl)-1,5-dimethyl-4,5,6,7-tetrahydro-1H-imidazo[4,5-c]pyridine-2-carboxamide], the Emax in test [1] (16 hours incubation) worked out at 97%. The IC50 was determined as 0.9 nM in test [1] (setting [2]) and 3 nM at human PD-1/PD-L1 binding (setting [3]). Besides, the ΔTm at 10 µM at human PD-L1 protein (setting [4]) turned out to be 13.5 °C.
